In ChEMBL document CHEMBL4513149, “CO-ADD screening of MMV (CH) - MMV compounds” (2021) one finds MIC and CC50 data, which are given here for 19 molecules.

In test [1] the test system is Escherichia coli. Nature of the test: microbe, parasite or virus in culture. The conditions noted are these: ATCC 25922, 18 h, ASSAY_TEST Inhibition of Bacterial Growth, detection method Absorption (OD600), MEDIA CAMHB, plate type 384well, NBS, CORNING #3640.
Description: (§1) Antibacterial activity against Escherichia coli ATCC 25922 (CO-ADD:GN_001); MIC in CAMBH media using NBS plates, by OD(600)
Test [2] has as its system Pseudomonas aeruginosa. As to the kind of experiment: microbe, parasite or virus in culture. The conditions noted are these: ATCC 27853, 18 h, ASSAY_TEST Inhibition of Bacterial Growth, detection method Absorption (OD600), MEDIA CAMHB, plate type 384well, NBS, CORNING #3640.
Description: (§2) Antibacterial activity against Pseudomonas aeruginosa ATCC 27853 (CO-ADD:GN_042); MIC in CAMBH media using NBS plates, by OD(600)
Test [3] concerns Staphylococcus aureus. Nature of the test: microbe, parasite or virus in culture. As to conditions: ATCC 43300, 18 h, ASSAY_TEST Inhibition of Bacterial Growth, detection method Absorption (OD600), MEDIA CAMHB, plate type 384well, NBS, CORNING #3640.
Description: (§3) Antibacterial activity against Staphylococcus aureus MRSA ATCC 43300 (CO-ADD:GP_020); MIC in CAMBH media, using NBS plates, by OD(600)
In test [4] the test system is Cryptococcus neoformans.
Description: Antifungal activity against Cryptococcus neoformans H99 ATCC 208821 (CO-ADD:FG_002); MIC in YNB media using NBS plates, by Resazurin OD(600-570)
The test system of test [5] is HEK293. As to the kind of experiment: cells. The conditions noted are these: Homo sapiens, ATCC CRL1573, HEK293; ASSAY_TEST Inhibition of Cell Viability; detection method Resazurin; Fluorescence (ex560/em590); MEDIA DMEM with 10% FBS; plate type 384well; TC; CORNING #3712; time 18 hr. The test is classed as functional. (In general: The colour change of resazurin is a common sign of viable cells or microbes.)

For test [6], the system named is Acinetobacter baumannii. As to the kind of experiment: microbe, parasite or virus in culture. The conditions noted are these: ATCC 19606, 18 h, ASSAY_TEST Inhibition of Bacterial Growth, detection method Absorption (OD600), MEDIA CAMHB, plate type 384well, NBS, CORNING #3640.
Description: (§4) Antibacterial activity against Acinetobacter baumannii ATCC 19606 (CO-ADD:GN_034); MIC in CAMBH media using NBS plates, by OD600
Test [7] has as its system Candida albicans. As to the kind of experiment: microbe, parasite or virus in culture. The conditions noted are these: ATCC 90028, ASSAY_TEST Inhibition of Fungal Growth, detection method Absorption (OD530), plate type 384well, NBS, CORNING #3640.
Description: (§5) Antifungal activity against Candida albicans ATCC 90028 (CO-ADD:FG_001); MIC in YNB media using NBS plates, by OD630
Test [8] deals with Klebsiella pneumoniae. Nature of the test: microbe, parasite or virus in culture. The conditions noted are these: ATCC 700603, 18 h, ASSAY_TEST Inhibition of Bacterial Growth, detection method Absorption (OD600), MEDIA CAMHB, plate type 384well, NBS, CORNING #3640.
Description: (§6) Antibacterial activity against Klebsiella pneumoniae MDR ATCC 70063 (CO-ADD:GN_003); MIC in CAMBH media using NBS plates, by OD(600)
The test system of test [9] is Candida albicans. As to conditions: ASSAY_TEST Inhibition of Fungal Growth; detection method Absorption (OD530); plate type 384well; NBS; CORNING #3640.
Description: as §5
Test [10] concerns Acinetobacter baumannii. The conditions noted are these: ASSAY_TEST Inhibition of Bacterial Growth; detection method Absorption (OD600); MEDIA CAMHB; plate type 384well; NBS; CORNING #3640; time 18 hr.
Description: as §4
The test system of test [11] is Escherichia coli. As to conditions: ASSAY_TEST Inhibition of Bacterial Growth; detection method Absorption (OD600); MEDIA CAMHB; plate type 384well; NBS; CORNING #3640; time 18 hr.
Description: as §1
Test [12] has as its system Pseudomonas aeruginosa. The conditions noted are these: ASSAY_TEST Inhibition of Bacterial Growth; detection method Absorption (OD600); MEDIA CAMHB; plate type 384well; NBS; CORNING #3640; time 18 hr.
Description: as §2
Test [13] concerns Staphylococcus aureus. As to conditions: ASSAY_TEST Inhibition of Bacterial Growth; detection method Absorption (OD600); MEDIA CAMHB; plate type 384well; NBS; CORNING #3640; time 18 hr.
Description: as §3
For test [14], the system named is Klebsiella pneumoniae. As to conditions: ASSAY_TEST Inhibition of Bacterial Growth; detection method Absorption (OD600); MEDIA CAMHB; plate type 384well; NBS; CORNING #3640; time 18 hr.
Description: as §6

Structures are written as SMILES. Values after ≈ are worked out from the molar mass of the structure shown. Structures can show the parent of a compound that is named as a salt. Bounds are passed on as bounds.

In general, CC50 refers to the concentration at which the toxic effect on the cells reaches its halfway point. The low end stands for harm at low concentration, the high end for better tolerance by the cells. With `Nc1nc2cc(-c3cncc(Oc4ccc(F)cc4)c3)ccc2[nH]1`, the MIC in [1], in test [2], in test [3], in test [4], in test [6] and in test [7] was over 10 µM throughout. The same molecule gave an MIC in test [8] of over 10 µM. The same molecule registered a half-maximal cytotoxic concentration (CC50) in test [5] of over 10 µM.
Regarding `O=C(Nc1ccc(C(F)(F)F)c(C(F)(F)F)c1)c1cc(Cl)ccc1O`, the MIC in [1], in test [2], in test [3], in test [4], in test [6] and in test [7] was over 10 µM throughout. The molecule also gave an MIC in [8] of over 10 µM. For the same molecule, the CC50 in [5] is over 10 µM.
In the case of `CO[C@H]1/C=C/O[C@@]2(C)Oc3c(C)c(O)c4c(O)c(/c(=C/NN5CCN(C)CC5)c(O)c4c3C2=O)=N\C(=O)/C(C)=C\C=C/[C@H](C)[C@H](O)[C@@H](C)[C@@H](O)[C@@H](C)[C@H](OC(C)=O)[C@@H]1C`, the MIC in test [1] was 10 µM (≈ 8.23 µg/mL); in test [2] it was 5 µM (≈ 4.11 µg/mL); in test [3], at most 0.0781 µM; in [4], over 10 µM; in test [6], over 10 µM; in test [7], over 10 µM. Moreover, the MIC in test [8] was over 10 µM. Besides, the 50% cytotoxic concentration (CC50) in [5] is over 10 µM.
Take `FC(F)(F)c1cnc(Sc2nnc(-c3ccncc3)o2)c(Cl)c1`: the MIC in [1] is over 10 µM; in [2] it was over 10 µM; in test [3], 10 µM (≈ 3.59 µg/mL); in test [4], over 10 µM; in test [6], over 10 µM; in [7], over 10 µM. Besides, the MIC in test [8] was over 10 µM. The molecule further gave a CC50 in [5] of over 10 µM.
Turning to `C[C@@H]1[C@H](O)[C@@H](C)/C=C/C=C/C=C/C=C/C=C/C=C/C=C/[C@H](O[C@@H]2O[C@H](C)[C@@H](O)[C@H](N)[C@@H]2O)C[C@@H]2O[C@](O)(C[C@@H](O)C[C@@H](O)[C@H](O)CC[C@@H](O)C[C@@H](O)CC(=O)O[C@H]1C)C[C@H](O)[C@H]2C(=O)O` [AMPHOTERICIN B], the MIC in [1], in [2], in test [3], in test [4], in [6] and in test [7] was over 10 µM in each case. The MIC in test [8] is over 10 µM. In addition, in test [5], the CC50 was over 10 µM.
As to `CO/C=C(/C(=O)OC)c1ccccc1Oc1cc(Oc2ccccc2C#N)ncn1` [AZOXYSTROBIN], the MIC in test [1] was over 10 µM; in test [2], over 10 µM; in test [3], over 10 µM; in test [4], over 10 µM; in test [6] it was over 10 µM; in test [7], 0.625 µM (≈ 0.252 µg/mL). Besides, the MIC in [8] is over 10 µM. The molecule further had a cytotoxic concentration (CC50) in test [5] of over 10 µM.
With `CC(C)(C)C(O)C(Oc1ccc(-c2ccccc2)cc1)n1cncn1` (configuration not stated) [BITERTANOL], the MIC was over 10 µM in test [1]; over 10 µM in test [2]; over 10 µM in test [3]; 1.25 µM (≈ 0.422 µg/mL) in test [4]; over 10 µM in test [6]; 5 µM (≈ 1.69 µg/mL) in [7]. This molecule returned an MIC in test [8] of over 10 µM. The same molecule gave a 50% cytotoxic concentration (CC50) in test [5] of over 10 µM.
Turning to `CC(C)(C)[C@H]1CC[C@H](CC2=C(O)C(=O)c3ccccc3C2=O)CC1` [BUPARVAQUONE], the MIC in test [1], in test [2], in [3], in [4], in [6] and in test [7] was over 10 µM each time. This molecule yielded an MIC in [8] of over 10 µM. In test [5], this molecule came in with a CC50 of over 10 µM.
Take `CC1COC(Cn2cncn2)(c2ccc(Oc3ccc(Cl)cc3)cc2Cl)O1` (configuration not stated) [DIFENOCONAZOLE]: the MIC in test [1] is over 10 µM; in [2] it was over 10 µM; in test [3], over 10 µM; in test [4], 0.625 µM (≈ 0.254 µg/mL); in [6], over 10 µM; in test [7] it was 0.625 µM (≈ 0.254 µg/mL). The molecule further registered an MIC in [8] of over 10 µM. Moreover, the CC50 in [5] is over 10 µM.
With `C[C@H]1c2cccc(O)c2C(=O)C2=C(O)[C@]3(O)C(=O)C(C(N)=O)=C(O)[C@@H](N(C)C)[C@@H]3[C@@H](O)[C@@H]21` [DOXYCYCLINE HYDROCHLORIDE], the MIC in [1] is 1.25 µM; in test [2], 0.156 µM; in [3], 0.156 µM; in [4] it was over 10 µM; in test [6], over 10 µM; in test [7], over 10 µM. In [8], this molecule had an MIC of over 10 µM. In test [5], this molecule showed a CC50 of over 10 µM.
For `Oc1c(I)cc(I)c2cccnc12` [IODOQUINOL], the MIC in test [1], in [2], in test [3], in test [4], in [6] and in test [7] was over 10 µM each time. Also, the MIC in test [8] was over 10 µM. For the same molecule, in [5], the CC50 is over 10 µM.
With `C[C@H]1COc2c(N3CCN(C)CC3)c(F)cc3c(=O)c(C(=O)O)cn1c23.C[C@H]1COc2c(N3CCN(C)CC3)c(F)cc3c(=O)c(C(=O)O)cn1c23.O` [LEVOFLOXACIN], the MIC in [9] is over 10 µM; in test [10] it was 2.5 µM; in test [11] it was “<=0.0781 uM”; in test [4], over 10 µM; in [12], 0.625 µM; in test [13], 0.625 µM. Moreover, the MIC in [14] was found to be 2.5 µM. Moreover, the CC50 in test [5] was over 10 µM.
In the case of `COC(=O)Nc1nc2cc(C(=O)c3ccccc3)ccc2[nH]1` [MEBENDAZOLE], the MIC in test [1], in test [2], in test [3], in [4], in test [6] and in test [7] was over 10 µM each time. Moreover, the MIC in [8] was over 10 µM. In addition, in test [5], the CC50 was over 10 µM.
For `CCCCCCCCCCCCCCCCOP(=O)([O-])OCC[N+](C)(C)C` [MILTEFOSINE], the MIC in [1], in [2], in test [3], in test [4], in [6] and in test [7] was over 10 µM throughout. The MIC in [8] is over 10 µM. The molecule also gave a 50% cytotoxic concentration (CC50) in test [5] of over 10 µM.
Take `N=C(N)c1ccc(OCCCCCOc2ccc(C(=N)N)cc2)cc1` [PENTAMIDINE ISETHIONATE]: the MIC is over 10 µM in test [1]; over 10 µM in test [2]; over 10 µM in test [3]; over 10 µM in [4]; over 10 µM in [6]; 0.312 µM in test [7]. The molecule also showed an MIC in test [8] of over 10 µM. The molecule further yielded a CC50 in test [5] of over 10 µM.
As to `CC[C@@H]([C@H](C)O)n1ncn(-c2ccc(N3CCN(c4ccc(OC[C@@H]5CO[C@@](Cn6cncn6)(c6ccc(F)cc6F)C5)cc4)CC3)cc2)c1=O` [POSACONAZOLE], the MIC in test [1] was over 10 µM; in test [2], over 10 µM; in test [3] it was over 10 µM; in test [4], 1.25 µM (≈ 0.876 µg/mL); in [6], over 10 µM; in test [7], 0.156 µM (≈ 0.11 µg/mL). Also, the MIC in test [8] is over 10 µM. Moreover, in test [5], the cytotoxic concentration (CC50) is over 10 µM.
In the case of `COc1cc(NC(C)CCCN)c2ncccc2c1.O=P(O)(O)O.O=P(O)(O)O` (configuration not stated) [PRIMAQUINE PHOSPHATE], the MIC was over 10 µM in test [9]; over 10 µM in test [10]; over 10 µM in [11]; over 10 µM in test [4]; over 10 µM in test [12]; 10 µM in test [13]. Moreover, in test [14], the MIC was over 10 µM. In test [5], this molecule showed a CC50 of over 10 µM.
Turning to `CC(=O)NC[C@H]1CN(c2ccc(N3CCSCC3)c(F)c2)C(=O)O1` [SUTEZOLID], the MIC was over 10 µM in [1]; over 10 µM in test [2]; 5 µM (≈ 1.77 µg/mL) in [3]; over 10 µM in [4]; over 10 µM in test [6]; over 10 µM in test [7]. In test [8], this molecule displayed an MIC of over 10 µM. In test [5], the CC50 is over 10 µM.
With `CCc1nn(C)c(C(=O)NCc2ccc(Oc3ccc(C)cc3)cc2)c1Cl` [TOLFENPYRAD], the MIC was over 10 µM in test [1]; over 10 µM in test [2]; over 10 µM in test [3]; 10 µM (≈ 3.84 µg/mL) in test [4]; over 10 µM in test [6]; over 10 µM in test [7]. In [8], this molecule yielded an MIC of over 10 µM. The same molecule registered a CC50 in [5] of over 10 µM.
